Data: ChEMBL document CHEMBL1201862, “PubChem BioAssay data set” (2004)
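Five compound concentrations were applied to cells in 96-well plates for 48 hours; endpoints were derived by simple linear interpolation of the resulting dose-response curve. GI50 is the concentration that inhibits growth by half.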 The source made the active and inactive calls. Rule as the data show it: active = GI50 up to about 1.1 µM and inactive = higher.

Experiments:
Test in all cases: growth of human tumour cells (NCI), 48 h
DMS-114 = tested on: DMS-114
DLD-1 = tested on: DLD-1
M19-MEL = tested on: M19-MEL
DMS-273 = tested on: DMS-273
SNB-78 = tested on: SNB-78
HOP-18 = tested on: HOP-18
XF498 = tested on: XF498
KM-20L2 = tested on: KM-20L2
RXF 631 = tested on: RXF 631

| SMILES | GI50 (DMS-114) | GI50 (DLD-1) | GI50 (M19-MEL) | GI50 (DMS-273) | GI50 (SNB-78) | GI50 (HOP-18) | GI50 (XF498) | GI50 (KM-20L2) | GI50 (RXF 631) |
| --- | --- | --- | --- | --- | --- | --- | --- | --- | --- |
| N#CC1C2CCC3(CC2CCN1C(=O)c1ccccc1)OCCO3 (stereo not drawn) | > 100 µM (inactive) | > 100 µM (inactive) | > 100 µM (inactive) | > 100 µM (inactive) | > 100 µM (inactive) | > 100 µM (inactive) | > 100 µM (inactive) | > 100 µM (inactive) | – |
| C=C1Cc2cc(OC)c(OC)c(OC)c2-c2ccc(SC)c(=O)cc21 | < 0.01 µM (active) | < 0.01 µM (active) | < 0.01 µM (active) | < 0.01 µM (active) | < 0.01 µM (active) | 4.92 µM (inactive) | < 0.01 µM (active) | < 0.01 µM (active) | – |
| N#CC(NNC(=O)Cc1ccccc1)c1ccc([N+](=O)[O-])cc1 (stereo not drawn) | – | > 100 µM (inactive) | > 100 µM (inactive) | > 100 µM (inactive) | > 100 µM (inactive) | 82.8 µM (inactive) | – | – | – |
| N/N=C1\C(=O)N(Cc2ccccc2)C(=O)C1C(=O)NCc1ccccc1 (stereo not drawn) | > 100 µM (inactive) | > 100 µM (inactive) | > 100 µM (inactive) | – | > 100 µM (inactive) | > 100 µM (inactive) | – | > 100 µM (inactive) | – |
| Cc1ccc(S(=O)(=O)N[C@H](C(=O)O)c2ccccc2)cc1 | – | > 100 µM (inactive) | > 100 µM (inactive) | > 100 µM (inactive) | – | > 100 µM (inactive) | > 100 µM (inactive) | > 100 µM (inactive) | > 100 µM (inactive) |
| CC1=C(C(=O)NCc2ccccc2)C(c2ccc([N+](=O)[O-])cc2)C(C(=O)NCc2ccccc2)=C(C)N1 | 30.2 µM (inactive) | 36.7 µM (inactive) | 21.3 µM (inactive) | 40.6 µM (inactive) | 78.7 µM (inactive) | > 100 µM (inactive) | 59 µM (inactive) | 22 µM (inactive) | – |
| CC(C)(C)C(=O)O[C@@H]1COC2C(O)COC21 (stereo partly drawn) | > 100 µM (inactive) | > 100 µM (inactive) | > 100 µM (inactive) | > 100 µM (inactive) | > 100 µM (inactive) | > 100 µM (inactive) | > 100 µM (inactive) | – | > 100 µM (inactive) |
| O=[N+]([O-])c1cccc(C2SCc3nc4ccccc4n32)c1 (stereo not drawn) | 53.5 µM (inactive) | 62.8 µM (inactive) | > 100 µM (inactive) | 85.7 µM (inactive) | > 100 µM (inactive) | > 100 µM (inactive) | > 10 µM (inactive) | > 100 µM (inactive) | – |
| CC1=CC(=O)NP(=O)(Oc2ccc(Cl)cc2)N1 (stereo not drawn) | > 100 µM (inactive) | > 100 µM (inactive) | > 100 µM (inactive) | > 100 µM (inactive) | > 100 µM (inactive) | > 100 µM (inactive) | > 100 µM (inactive) | > 100 µM (inactive) | – |
| C/C(=N\N(c1ccccc1)c1ccccc1)c1c(O)cc(C)oc1=O | – | 76.2 µM (inactive) | 81.7 µM (inactive) | – | > 100 µM (inactive) | > 100 µM (inactive) | – | > 100 µM (inactive) | – |
| CC(C)Cc1ccc(C(C)/C=C2\CCC(CN3CCCCC3)C2=O)cc1 (stereo not drawn) | 2.22 µM (inactive) | 2.33 µM (inactive) | 2.54 µM (inactive) | 2.86 µM (inactive) | 5.74 µM (inactive) | 16.6 µM (inactive) | 6.78 µM (inactive) | 10.4 µM (inactive) | – |
| O=C1C(c2ccccc2)=C(c2ccccc2)[C@H](c2ccccc2)[C@]1(Cc1nnn(-c2ccc([N+](=O)[O-])cc2)c1N1CCOCC1)c1ccccc1 | > 37.5 µM (inactive) | > 37.5 µM (inactive) | > 37.5 µM (inactive) | 24.9 µM (inactive) | > 37.5 µM (inactive) | > 37.5 µM (inactive) | 8.3 µM (inactive) | > 37.5 µM (inactive) | > 37.5 µM (inactive) |
| CC1=C(/C(C)=N/NS(=O)(=O)c2ccc(C)cc2)Sc2ccccc2N1 | 43.4 µM (inactive) | – | 43.7 µM (inactive) | 78.3 µM (inactive) | > 100 µM (inactive) | 72.1 µM (inactive) | – | > 100 µM (inactive) | > 100 µM (inactive) |
| N#CCCc1nc2ccc(Br)cc2c(=O)n1CCO | > 100 µM (inactive) | > 100 µM (inactive) | > 100 µM (inactive) | – | > 100 µM (inactive) | – | 95.7 µM (inactive) | – | > 100 µM (inactive) |
| Cc1cccc(CC(C)(C)C)c1NC(=O)C(=O)C(C(=O)c1ccc2ccccc2c1)C1OC(=O)c2ccccc21 (stereo not drawn) | 10.4 µM (inactive) | 14 µM (inactive) | 14.6 µM (inactive) | – | 11.5 µM (inactive) | – | – | – | – |
| CC(C)C(/C=C/c1ccccc1)=N\NC(=O)N/N=C(/C=C/c1ccccc1)C(C)C | 13 µM (inactive) | 34.8 µM (inactive) | 21 µM (inactive) | 19.8 µM (inactive) | 28.1 µM (inactive) | – | 26.4 µM (inactive) | 22.5 µM (inactive) | – |
| O=C(CN(Cc1ccccc1)Cc1ccccc1)N1CCc2c([nH]c3ccccc23)C1c1cccnc1 (stereo not drawn) | 4.35 µM (inactive) | 6.4 µM (inactive) | 5.98 µM (inactive) | 4.74 µM (inactive) | 15.8 µM (inactive) | 46.5 µM (inactive) | 13.9 µM (inactive) | 6.92 µM (inactive) | – |
| NC(=O)NC1C(C(N)=O)N(Cc2ccccc2)C(=O)N1Cc1ccccc1 (stereo not drawn) | > 100 µM (inactive) | > 100 µM (inactive) | > 100 µM (inactive) | > 100 µM (inactive) | > 100 µM (inactive) | > 100 µM (inactive) | > 100 µM (inactive) | 46 µM (inactive) | > 100 µM (inactive) |
| Cc1cccc(C(=O)O)c1C(=O)c1cccc2ccccc12 | > 100 µM (inactive) | > 100 µM (inactive) | > 100 µM (inactive) | > 100 µM (inactive) | > 100 µM (inactive) | > 100 µM (inactive) | – | 33.5 µM (inactive) | – |
| COc1cccc(-c2cc(O)c3cc(OC)c(OC)cc3n2)c1 | – | 42.3 µM (inactive) | 59.8 µM (inactive) | 36.3 µM (inactive) | 29.9 µM (inactive) | – | – | 26.6 µM (inactive) | – |
| CC(Oc1ccc(OCC2CCCCC2)cc1)C(=O)OCC(=O)c1ccc(-c2ccccc2)cc1 (stereo not drawn) | > 100 µM (inactive) | > 100 µM (inactive) | > 100 µM (inactive) | > 100 µM (inactive) | > 100 µM (inactive) | 22.6 µM (inactive) | > 100 µM (inactive) | – | – |
| COCC(=O)CP(=O)(OC)OC | > 100 µM (inactive) | – | > 100 µM (inactive) | > 100 µM (inactive) | > 100 µM (inactive) | – | > 100 µM (inactive) | – | – |
